Assay results reported in patent US6399607B1, “Aminomethylene amide analogs of pyrazinamide with intracellular antimycobacterial activity against pyrazinamide-resistant mycobacteria combined with a rifamycin” (priority 1999, dated 2002).
Where two headings read alike, the source gives them in different places.

What was measured:
Assay type in all cases: cell-based, Mycobacterium tuberculosis
M. tuberculosis [1] = test: MIC in modified 7H10 broth against M. tuberculosis (Table 3); set-up: MIC, M. tuberculosis ATCC 35828: unit not given beside the values; details: ATCC 35828 (PZA resistant), pH 5.8
M. tuberculosis [2] = test: Influence of pH on MICs (Table 5); set-up: unit not given beside the values; details: ATCC 35828 (PZA resistant)
M. tuberculosis [3] = test: microbe, parasite or virus in culture; set-up: MIC, PZA-resistant strain at pH 6.0: unit not given beside the values; details: for MIC, INH-resistant strain, pH 6.0 / MIC, PZA-resistant strain, pH 6.0 / MIC, INH-resistant strain, pH 6.8 / MIC, PZA-resistant strain, pH 6.8: 7H12 BACTEC broth
[4] = system: PZA-resistant Mtb in macrophages; details: FIG. 1; in comparison with PZA or the control
M. tuberculosis [5] = system: M. tuberculosis; set-up: unit not given beside the values; details: for MIC, M. tuberculosis ATCC 27294: ATCC 27294 = H37RV, strain susceptible to pyrazinamide; for MIC, M. tuberculosis ATCC 35822: ATCC 35822, isoniazid (INH)-resistant strain; for MIC, M. tuberculosis ATCC 35828: ATCC35828, PZA resistant strain; for MIC, M. tuberculosis MS 6210: MS6210, resistant clinical isolate
M. tuberculosis [6] = system: M. tuberculosis

SMILES | MIC, M. tuberculosis ATCC 35828 (M. tuberculosis [1]) | MIC, ATCC 35828 pH 6.0 (M. tuberculosis [2]) | MIC, ATCC 35828 pH 6.8 (M. tuberculosis [2]) | MIC, INH-resistant strain, pH 6.0 (M. tuberculosis [3]; pH 6.0) | MIC, PZA-resistant strain, pH 6.0 (M. tuberculosis [3]; pH 6.0) | MIC, INH-resistant strain, pH 6.8 (M. tuberculosis [3]) | MIC, PZA-resistant strain, pH 6.8 (M. tuberculosis [3]) | MIC, PZA-resistant strain, pH 5.5 (M. tuberculosis [3]; PZA-resistant strain) | MIC, M. tuberculosis ATCC 27294 (M. tuberculosis [5]) | MIC, M. tuberculosis ATCC 35822 (M. tuberculosis [5]) | MIC, M. tuberculosis ATCC 35828 (M. tuberculosis [5]) | MIC, M. tuberculosis MS 6210 (M. tuberculosis [5]) | also measured
O=C(NCN1CCCC1)c1cnccn1 [Compound 1, pyrazine-2-carboxylic acid (pyrrolidin-1-ylmethyl)-amide] | 2 | 100 | 100 | 100 g./ml | 100 g./ml | 100 g./ml | 100 g./ml | 100 g./ml | – | – | – | – | –
CCN(CC)CNC(=O)c1cnccn1 [Compound 2, pyrazine-2-carboxylic acid diethylaminomethyl-amide] | 1 | 100 | 100 | 100 g./ml | 100 g./ml | 100 g./ml | 100 g./ml | – | – | – | – | – | number of colony forming units (CFU) of M. tuberculosis from macrophages [4]: reduced the number of CFU
O=C(NCN1CCOCC1)c1cnccn1 [Compound 4, (morpholin-4-ylmethyl)-amide] | 16 | – | – | – | – | – | – | – | 100 | 33 | 100 | 100 | –
NC(=O)c1cnc(Cl)cn1 [Compound 5-Chloro-PZA, 5-chloro-pyrazinamide, reference compound] | 8 | – | – | – | – | – | – | – | – | – | – | – | –
CN1CCN(CNC(=O)c2cnccn2)CC1 [Compound 7, (piperazin-1-ylmethyl)-amide] | – | – | – | – | – | – | – | – | 300 | 100 | 300 | 100 | –
CN(CNC(=O)c1cnccn1)Cc1ccccc1 [Compound 8, [(benzyl-methyl-amino)-methyl]-amide] | – | – | – | – | – | – | – | – | 100 | 100 | 100 | 33 | –
CCCN(CCC)CNC(=O)c1cnccn1 [Compound 9, dipropylaminomethyl-amide] | – | – | – | – | – | – | – | – | 100 | 100 | 100 | 100 | –
CCN(CC)CNC(=O)c1cnc(N(CC)CC)cn1 [Compound 17, 5-diethylamino-pyrazinoic acid diethylaminomethyl-amide] | 16 | – | – | – | – | – | – | – | – | – | – | – | –
O=C(NCN1CCOCC1)c1cnccn1 [MZA, morphazinamide] | – | 100 | 100 | 100 g./ml | 100 g./ml | 100 g./ml | 100 g./ml | 100 g./ml | – | – | – | – | activity at pH 6.8 compared with pH levels 5.5 and 6.0 (M. tuberculosis [6]; pH 6.8 v. 5.5 and 6.0): no different from or only slightly higher than at pH levels 5.5 and 6.0; MICs against susceptible strains at pH 5.5 and 6.0 compared with PZA (M. tuberculosis [6]; susceptible strains, pH 5.5 and 6.0): in the same range as those of PZA
NC(=O)c1cnccn1 [PZA, Pyrazinamide] | 2048 | >300 | >300 | 33 g./ml | >300 g./ml | >300 g./ml | >300 g./ml | > 300 g./ml | 33 | 33 | >300 | 100 | MIC, PZA-resistant strain at pH 6.0 (M. tuberculosis [3]; PZA-resistant strain, pH 6.0): > 300; activity against susceptible strains by pH (M. tuberculosis [6]; pH 5.5, 6.0, 6.8): active against susceptible strains at pH 5.5 and 6.0 only, and not at pH 6.8
